The subject of one data set is male SPRD rats. In words: Elevated plus-maze test. Type of data set: in vivo, rat. To be noted: for minimal effective dose: Rattus norvegicus, po, 1 h, read-out: Minimum effective dose. On the procedure:
1. Elevated Plus-Maze Test
The tests were carried out on male SPRD rats weighing 220 to 260 g. Each group of animal consisted of 8 to 10 pieces of rat. The substance to be examined or the vehicle (i.e. distilled water or a 0.4% solution of methylcellulose) was administered to the animals in a volume of 5 ml/kg as a solution or suspension per os 60 minutes prior to the test.
The elevated plus-maze consists of two open and two 40 cm wall enclosed arms of the same size (50×15 cm) arranged in the shape of a cross. The arms of the same type are opposite to each other. The junction of the four arms forms a central square area (15×15 cm). The apparatus is made of a wooden material elevated to a height of 50 cm and illuminated by a dim light from above. The essence of the method is that during the exploration of the apparatus, the animals spend considerably more time in the closed arms than in the open arms due to the natural fear from open space and height. […] Methods., 14, 149-167 (1985)].

The next data set concerns male NMRI mice. The data set is described as follows: Determination of the spontaneous motor activity. To be noted: p.o., 60 minutes prior to the test, dose producing 50% of inhibition of motor activity. On the procedure: 2. Determination of the Spontaneous Motor Activity
For the experiments, male NMRI mice weighing 20 to 25 g were used. Each treatment group consisted of 10 mice. The substance to be examined or the vehicle (i.e. a 0.4% solution of methylcellulose) was administered to the animals in a volume of 20 ml/kg as a suspension per os 60 minutes prior to the test. […] In case of anxiolytics, the value of the anxiolytic effect depends on the presence or absence of the sedative action (the latter is […]). For the experiments, an apparatus “digital motimeter” having 10 measuring places was used. The motion of the animals was indicated by the interruption of three parallel beams of infrared light at each measuring place, and the interruptions were recorded by the apparatus. The activity of one animal was determined at each measuring place. […] Int.

Setting [1] is: p.o., 60 minutes prior to the test, male SPRD rats, time spent in and entries into open arms.

The record followed here is patent publication US6469168B1, “Piperazinylalkylthiopyrimidine derivatives, pharmaceutical compositions containing the same, and a process for the preparation of the active substance” (EGIS Gyógyszergyár Rt., priority 1999, dated 2002).

Structures can show the parent of a compound that is named as a salt. Where two headings read alike, the source gives them in different places.

As usually defined, the melting point is the temperature of the solid-liquid transition.

“4,6-Diamino-2-[2-(4-methyl-1-piperazinyl)propylthio]-5-(2-methoxybenzyl)pyrimidine trihydrochloride hydrate [Example 4]”: the Minimum effective dose in the data set with male SPRD rats (setting [1]) was 1 mg/kg. Also, the ID50 in the data set on male NMRI mice came out at 32.8 mg/kg.
For “4,6-Diamino-2-[2-/4-(2-dimethylaminoethyl)-1-piperazinyl/-ethyl-thio]-5-(2-methoxybenzyl)pyrimidine tetrahydrochloride dihydrate [Example 6]” the same measures were 0.03 mg/kg and >100 mg/kg.
Regarding “4,6-Diamino-2-[3-(1-piperazinyl)ethylthio]-5-(2-ethoxybenzyl)-pyrimidine trihydrochloride trihydrate [Example 14]”, in the data set with male SPRD rats (setting [1]), the Minimum effective dose is listed as 1 mg/kg.
On the same count and under the same terms, the figure for “4,6-Diamino-2-[4-(4-methyl-1-piperazinyl)ethylthio]-5-(2-ethoxybenzyl)pyrimidine trihydrochloride hydrate [Example 13]” is 1 mg/kg.
On to “4,6-Diamino-5-(2-methoxybenzyl)-2-[2-(1-piperazinyl)ethylthio]-pyrimidine fumarate [Example 2]”, for which the Minimum effective dose with male SPRD rats (setting [1]) was 1 mg/kg. For the same molecule, in the data set on male NMRI mice, the ID50 was >100 mg/kg.
With `COc1ccccc1Cc1c(N)nc(SCCN2CCN(C(C)C)CC2)nc1N` (as salt: hydrochloride) (hydrate or solvate) [Example 5, 4,6-Diamino-2-[2-(4-isopropyl-1-piperazinyl)ethylthio]-5-(2-methoxybenzyl)pyrimidine trihydrochloride hydrate], the melting point was 253 to 255 °C.
The molecule `COc1ccccc1Cc1c(N)nc(SCCCCN2CCN(C)CC2)nc1N` (as salt: hydrochloride) (hydrate or solvate) [Example 8, 4,6-Diamino-2-[4-(4-methyl-1-piperazinyl)butylthio]-5-(2-methoxybenzyl)pyrimidine trihydrochloride hydrate] had a melting point of 202 °C.
The same measure, in the same setting: the figure for `Nc1nc(SCCCN2CCNCC2)nc(N)c1Cc1ccc(Cl)cc1` (as salt: hydrochloride) (hydrate or solvate) [Example 17, 4,6-Diamino-2-[3-(1-piperazinyl)propylthio]-5-(4-chlorobenzyl)-pyrimidine trihydrochloride trihydrate] is 187 °C.
On the same count and under the same terms, under `Nc1nc(SCCN2CCNCC2)nc(N)c1Cc1ccc(F)cc1` (as salt: hydrochloride) (hydrate or solvate) [Example 19, 4,6-Diamino-2-[2-(1-piperazinyl)ethylthio]-5-(4-fluorobenzyl)-pyrimidine trihydrochloride hydrate] stands 168 to 170 °C; under `COc1ccccc1Cc1c(N)nc(SCCN2CCN(CCCN(C)C)CC2)nc1N` (as salt: hydrochloride) (hydrate or solvate) [Example 26, 4,6-Diamino-2-{2-[4-(3-dimethylaminopropyl)-1-piperazinyl]-ethylthio}-5-(2-methoxybenzyl)pyrimidine tetrahydrochloride hydrate], 262 to 264 °C; under `COc1ccccc1Cc1c(N)nc(SCCCN2CCNCC2)nc1N` (as salt: hydrochloride) [Example 10, 4,6-Diamino-2-[3-(1-piperazinyl)propylthio]-5-(2-methoxy-benzyl)pyrimidine trihydrochloride], 197 to 198 °C.
Still for that read-out and setting: under `COc1ccccc1Cc1c(N)nc(SCCCCN2CCNCC2)nc1N` (as salt: hydrochloride) [Example 18, 4,6-Diamino-2-[4-(1-piperazinyl)butylthio]-5-(2-methoxybenzyl)-pyrimidine trihydrochloride] stands 255 °C.
On to `COc1ccccc1Cc1c(N)nc(SCCN2CCNCC2)nc1N` [1 (besylate), 4,6-Diamino-5-(2-methoxybenzyl)-2-[2-(1-piperazinyl)ethylthio]-pyrimidine], for which, in the data set with male SPRD rats (setting [1]), the Minimum effective dose was 1 mg/kg. Further, the ID50 with male NMRI mice is >90 mg/kg.
For `COc1ccccc1Cc1c(N)nc(SCCN2CCNCC2)nc1N` [Example 1 (fumarate), 4,6-Diamino-5-(2-methoxybenzyl)-2-[2-(1-piperazinyl)ethylthio]-pyrimidine] the same measures were 3 mg/kg and >100 mg/kg.
`COc1ccccc1Cc1c(N)nc(SCCN2CCN(C(C)C)CC2)nc1N` [Example 5, 4,6-Diamino-2-[2-(4-isopropyl-1-piperazinyl)ethylthio]-5-(2-methoxybenzyl)pyrimidine trihydrochloride hydrate]: in the data set on male SPRD rats (setting [1]), the minimal effective dose was 3 mg/kg. In addition, in the data set on male NMRI mice, the ID50 is given as >100 mg/kg.
With `CCOc1ccccc1Cc1c(N)nc(SCCCN2CCN(C=O)CC2)nc1N` [Example 7, 4,6-Diamino-2-[3-(4-formyl-1-piperazinyi)propylthio]-5-(2-ethoxybenzyl)pyrimidine], in the data set with male SPRD rats (setting [1]), the Minimum effective dose is reported as <1 mg/kg. The ID50 in the data set with male NMRI mice is recorded as >100 mg/kg.
For `COc1ccccc1Cc1c(N)nc(SCCCCN2CCN(C)CC2)nc1N` [Example 8, 4,6-Diamino-2-[4-(4-methyl-1-piperazinyl)butylthio]-5-(2-methoxybenzyl)pyrimidine trihydrochloride hydrate], in the data set with male SPRD rats (setting [1]), the minimal effective dose worked out at 3 mg/kg. The ID50 with male NMRI mice was >100 mg/kg.
`COc1ccccc1Cc1c(N)nc(SCCCN2CCN(C=O)CC2)nc1N` [Example 9, 4,6-Diamino-2-[3-(4-formyl-1-piperazinyl)propylthio]-5-(2-methoxybenzyl)pyrimidine] returned a melting point of 174 to 176 °C. Further, in the data set with male SPRD rats (setting [1]), the minimal effective dose is 3 mg/kg.
Take `COc1ccccc1Cc1c(N)nc(SCCCN2CCNCC2)nc1N` [Example 10, 4,6-Diamino-2-[3-(1-piperazinyl)propylthio]-5-(2-methoxy-benzyl)pyrimidine trihydrochloride]: the minimal effective dose with male SPRD rats (setting [1]) came to 1 mg/kg.
Molecule `COc1ccccc1Cc1c(N)nc(SCCCN2CCN(C(C)=O)CC2)nc1N` [Example 12, 4,6-Diamino-2-[3-(4-acetyl-1-piperazinyl)propylthio]-5-(2-methoxybenzyl)pyrimidine] displayed a melting point of 208 to 209 °C. Further, the minimal effective dose in the data set with male SPRD rats (setting [1]) stood at 1 mg/kg.
For `COc1ccccc1Cc1c(N)nc(SCCN2CCN(C(C)=O)CC2)nc1N` [Example 16, 4,6-Diamino-2-[2-(4-acetyl-1-piperazinyl)ethylthio]-5-(2-methoxybenzyl)pyrimidine], the melting point was in the range of 198.5 to 199.5 °C. The minimal effective dose in the data set with male SPRD rats (setting [1]) worked out at 3 mg/kg. In the data set with male NMRI mice, the ID50 is >100 mg/kg.
Turning to `Nc1nc(SCCCN2CCNCC2)nc(N)c1Cc1ccc(Cl)cc1` [Example 17, 4,6-Diamino-2-[3-(1-piperazinyl)propylthio]-5-(4-chlorobenzyl)-pyrimidine trihydrochloride trihydrate], the minimal effective dose with male SPRD rats (setting [1]) was found to be 1 mg/kg. Moreover, in the data set with male NMRI mice, the ID50 is >100 mg/kg.
The like results for `COc1ccccc1Cc1c(N)nc(SCCCCN2CCNCC2)nc1N` [Example 18, 4,6-Diamino-2-[4-(1-piperazinyl)butylthio]-5-(2-methoxybenzyl)-pyrimidine trihydrochloride] were, in that order, 1 mg/kg and >100 mg/kg.
The like results for `Nc1nc(SCCN2CCNCC2)nc(N)c1Cc1ccc(F)cc1` [Example 19, 4,6-Diamino-2-[2-(1-piperazinyl)ethylthio]-5-(4-fluorobenzyl)-pyrimidine trihydrochloride hydrate] were, in that order, 0.01 mg/kg and >100 mg/kg.
Turning to `CC(C)c1ccc(Cc2c(N)nc(SCCN3CCNCC3)nc2N)cc1` [Example 25, 4,6-Diamino-2-[2-(1-piperazinyl)ethylthio]-5-(4-isopropylbenzyl)-pyrimidine], the melting point was in the range of 63 to 64 °C.
On to `COc1ccccc1Cc1c(N)nc(SCCN2CCN(CCCN(C)C)CC2)nc1N` [Example 26, 4,6-Diamino-2-{2-[4-(3-dimethylaminopropyl)-1-piperazinyl]-ethylthio}-5-(2-methoxybenzyl)pyrimidine tetrahydrochloride hydrate], for which the minimal effective dose in the data set on male SPRD rats (setting [1]) was determined as 0.3 mg/kg. The ID50 in the data set on male NMRI mice is listed as >100 mg/kg.
As for `CN1C(=O)CN=C(c2ccccc2)c2cc(Cl)ccc21` [diazepam, 7-chloro-1,3-dihydro-1-methyl-5-phenyl-2H-1,4-benzodiazepine-2-one, reference compound], in the data set with male SPRD rats, the minimal effective dose amounted to 1 mg/kg.
